Measured values from patent US20190099502A1, “TARGETING THE NEURONAL CALCIUM SENSOR 1 FOR TREATING WOLFRAM SYNDROME” (INSERM (INSTITUT NATIONAL DE LA SANTÉ ET DE LA RECHERCHE …, priority 2016, published 2019).
Where a SMILES comes first, the peptide text is derived from it. The star is where a group is joined. Cbz = O=C(OCc1ccccc1)*

System: NCS1 expression
Assay: Time course immunoblotting of NCS1 in fibroblasts treated with MG-132
Type: cell-based, human
Details: 10 μM MG-132, 16 h
Protocol: Immunoprecipitates were analysed by western blotting with antibodies against Flag and myc. Input represents cell lysate. n=3 independent experiments. (B) Transcript levels of WFS1 were quantified by RT-qPCR in control (C1, C2) and patient fibroblasts (P1, P2). The mRNA levels were normalized with reference gene L27. Error bars: SEM n=6 independent experiments. (C) Immunoblot of lysates from controls (C1, C2) and patient fibroblasts (P1, P2) with NCS1 antibody. GAPDH was used as a loading control. The immunoblot bands were quantified by densitometry, and the NCS1/GAPDH ratios were calculated (n=5 independent experiments). (D) Western analysis and quantification of control fibroblasts transfected with scramble siRNA (siScr) or WFS1 siRNA (siWFS1). WFS1 and NCS1 protein expression were analysed 72 h post-siRNA transfection. Data are represented as mean ±SEM from n=7 independent experiments *p<0.05, using Mann Whitney test. […]
GAPDH was used as a loading control. Quantification of NCS1 expression level after 16 h of MG-132 treatment normalized to GAPDH is shown. […]
To investigate NCS1 functions in WS, we took advantage of WFS1-null patient fibroblasts. […] We first examined the expression of WFS1 using quantitative PCR and western blot. […] Then, we analysed NCS1 mRNA and protein expression in patient cells. […]

CC(C)C[C@@H](C=O)NC(=O)[C@H](CC(C)C)NC(=O)[C@H](CC(C)C)NC(=O)OCc1ccccc1 [MG-132] (Cbz-Leu-Leu-Leu-aldehyde)
effect on NCS1 expression (control cells): ineffective | increase in NCS1 expression (patient fibroblasts, normalized to GAPDH): two-fold
